What was measured:
Human LDLs [1] = assay: Modification of LDLs by copper sulphate (inhibition of LDL oxidation, MDA production); type: biochemical; details: 24 hours, copper sulfate 5 μM, compounds 0.1 μM to 100 μM; read-out: IC50 (reduction by 50% of the production of MDA), oxidation of LDLs by copper sulfate
Protocol: (§1) This activity was compared with that of probucol and vitamin E taken as reference products.
Modification of LDLs by copper sulphate
Human LDLs are incubated for 24 hours in the presence of copper sulfate (5 μM) and in the absence or in the presence of the compounds tested (from 0.1 μM to 100 μM).
After incubation, the peroxidation of the LDLs is evaluated by electrophoresis on agar gel and by the formation of one of the products of lipid peroxidation: malonic dialdehyde (MDA) (cf. Parthasarathy S. et al., J. Clin. Invest., 77, (1986), 641-644).
The activity of the compounds tested is evaluated by calculating the concentrations that reduce by 50% (IC50) the production of MDA compared with the control experiments in the absence of a product of the invention.

Human LDLs [2] = assay: Modification of LDLs by endothelial cells of the rabbit aorta (inhibition of LDL oxidation, MDA production); type: cell-based; details: 24 hours, endothelial cells of rabbit aorta (RECL B4 line), compounds 0.1 to 100 μM; read-out: IC50 (reduction by 50% of the production of MDA), oxidation of LDLs by endothelial cells
Protocol: as §1
Modification of LDLs by endothelial cells
Human LDLs are incubated for 24 hours in the presence of endothelial cells of the rabbit aorta (RECL B4 line, provenance: Pr. Steinberg, USA) and in the absence or in the presence of the tested compounds (from 0.1 to 100 μM).
After incubation, the peroxidation of the LDLs is evaluated as in Example 21 by electrophoresis on agar gel and by the formation of MDA (cf. Steinbrecher, U.P. et al., Proc. Nat. Acad. Sci. USA, 81, (1984), 3883-3887). The activity of the compounds tested is evaluated by calculating the concentrations that reduce by 50% (IC50) the production of MDA compared with the control experiments in the absence of a product of the invention.
The results of this test of inhibition of oxidation of LDLs by endothelial cells are grouped below: […]

[3] = test system: coronary arteries caused to contract by F2α prostaglandin (PGF2α); assay: Vasorelaxant activity on isolated coronary artery rings contracted by PGF2α; set-up: species or system Yucatan miniature pigs; details: for activity at 0.1 µM / activity at 0.3 µM / activity at 1 µM / activity at 3 µM / activity at 10 µM: 0.25 h, PGF2α 4 μM, indomethacin 10 μM, cumulative concentrations every 15 minutes, read-out: tension as a percentage of the maximum tension observed under PGF2α
Protocol: Study of the compounds of the invention on isolated vessels
Yucatan miniature pigs (Ch. River) are anaesthetised with pentobarbitone. The circumflex branch of the left coronary artery is removed and proximal rings of approximately 4 mm are prepared. The organs are placed in a temperature-controlled 20 ml bath containing a physiological solution having the composition:
maintained at 37° C., pH =7.4 and with 95% oxygen and 5% carbon dioxide. The initial tension is established progressively up to 6 g. After a stabilisation period of 60 minutes, the rings are caused to contract by PGF2a (4 μM) in the presence of indomethacin (10 μM). As soon as this concentration has stabilised, the products of the present invention are tested by adding cumulative concentrations of the product of Example 17 and probucol every 15 minutes in comparison with the control experiments with the solvent used (dimethyl sulfoxide:DMSO).

CC(C)(C)c1cc(-c2cc(=O)c3ccc(O)cc3o2)cc(C(C)(C)C)c1O [Example 1, 3',5'-di-tert-butyl-7,4'-dihydroxyflavone]
IC50 (Human LDLs [1]): 1 µM

CCCCCCOc1ccc2c(=O)cc(-c3cc(C(C)(C)C)c(O)c(C(C)(C)C)c3)oc2c1 [Example 2, 3',5'-di-tert.-butyl-7-n-hexyloxy-4'-hydroxyflavone]
IC50 (Human LDLs [1]): 5 µM

CC(C)(C)c1cc(-c2cc(=O)c3ccc(OCCN4CCOCC4)cc3o2)cc(C(C)(C)C)c1O [Example 3, 3', 5'-di-tert.-butyl-4'-hydroxy-.7-(4"-morpholinylethoxy)flavone]
IC50 (Human LDLs [1]): 0.8 µM

CC(C)(C)c1cc(-c2cc(=O)c3ccc(OCc4ccc(Cl)cc4)cc3o2)cc(C(C)(C)C)c1O [Example 4, 7-p-chlorobenzyloxy-3',5'-di-tert.-butyl-4'-hydroxyflavone]
IC50 (Human LDLs [1]): 7 µM

CC(C)(C)c1cc(-c2cc(=O)c3ccc(OCC(=O)N4CCCCC4)cc3o2)cc(C(C)(C)C)c1O [Example 5, 3',5'-di-tert-butyl-4'-hydroxy-7-(2"-piperidino-2"-oxoethoxy)flavone]
IC50 (Human LDLs [1]): 3 µM

CC(C)(C)c1cc(-c2cc(=O)c3ccc(OCC(=O)N4CCN(Cc5ccccc5)CC4)cc3o2)cc(C(C)(C)C)c1O [Example 6, 3',5'-di-tert.-butyl-4'-hydroxy-7-[2"-(N-benzylpiperazino)-2"-oxo-ethoxy]flavone]
IC50 (Human LDLs [1]): 3 µM

CCN(CC)C(=O)COc1ccc2c(=O)cc(-c3cc(C(C)(C)C)c(O)c(C(C)(C)C)c3)oc2c1 [Example 7, 3',5'-di-tert-butyl-4'-hydroxy-7-(N,N-diethylacetamidoxy) flavone]
IC50 (Human LDLs [1]): 3 µM

CC(C)(C)c1cc(-c2cc(=O)c3ccccc3o2)cc(C(C)(C)C)c1O [Example 14, 3',5'-di-tert-butyl-4'-hydroxyflavone]
IC50 (Human LDLs [2]): 2.5 µM
IC50 (Human LDLs [1]): 3 µM

CCOC(=O)C(C)(C)Oc1ccc2c(=O)cc(-c3cc(C(C)(C)C)c(O)c(C(C)(C)C)c3)oc2c1 [Example 15, Ethyl 2-17-(3',5'-di-tert.-butyl-4'-hydroxy)flavonyl]oxy-2,2-dimethyl acetate]
IC50 (Human LDLs [2]): 0.5 µM
IC50 (Human LDLs [1]): 3 µM

CCOC(=O)COc1ccc2c(=O)cc(-c3cc(C(C)(C)C)c(O)c(C(C)(C)C)c3)oc2c1 [Example 16, Ethyl 2-[7-(3',5'-di-tert.-butyl-4'-hydroxy)flavonyl]oxyacetate]
IC50 (Human LDLs [2]): 0.8 µM
activity at 0.1 µM ([3]; Sus scrofa): 95.4%
activity at 0.3 µM ([3]; Sus scrofa): 85%
activity at 1 µM ([3]; Sus scrofa): 74.1%
activity at 3 µM ([3]; Sus scrofa): 37.3%
activity at 10 µM ([3]; Sus scrofa): 20.2%
IC50 ([3]; Sus scrofa, coronary artery rings contracted by PGF2α, read-out: IC50 of vascular relaxation): ~2.6 µM
vascular relaxation (in words) ([3]; coronary artery rings contracted by PGF2α): concentration-dependent vascular relaxation
IC50 (Human LDLs [1]): 3 µM

CC(C)(C)c1cc(-c2cc(=O)c3ccc(OCC(=O)O)cc3o2)cc(C(C)(C)C)c1O [Example 17, 2-[7-(3',5'-di-tert.-butyl-4'-hydroxy)flavonyl]oxyacetic acid]
IC50 (Human LDLs [2]): 0.5 µM
IC50 (Human LDLs [1]): 3 µM

CC(C)(C)c1cc(-c2cc(=O)c3ccc(OCC(=O)O)cc3o2)cc(C(C)(C)C)c1O [Example 18]
IC50 (Human LDLs [1]): 5 µM

CC(C)(C)c1cc(C(=O)Oc2ccc3c(=O)cc(-c4cc(C(C)(C)C)c(O)c(C(C)(C)C)c4)oc3c2)cc(C(C)(C)C)c1O [Example 20, 3',5'-di-tert-butyl-4'-hydroxy-7-(3",5"-di-tert-butyl-4"-hydroxy)benzoyloxyflavone]
IC50 (Human LDLs [2]): 0.7 µM
IC50 (Human LDLs [1]): 30 µM

CC(C)(Sc1cc(C(C)(C)C)c(O)c(C(C)(C)C)c1)Sc1cc(C(C)(C)C)c(O)c(C(C)(C)C)c1 [PROBUCOL, reference compound]
IC50 (Human LDLs [2]): 4 µM
activity at 0.1 µM ([3]; Sus scrofa): 93.3%
activity at 0.3 µM ([3]; Sus scrofa): 85.6%
activity at 1 µM ([3]; Sus scrofa): 77.3%
activity at 3 µM ([3]; Sus scrofa): 66%
activity at 10 µM ([3]; Sus scrofa): 49.2%
IC50 (Human LDLs [1]): 3 µM

VITAMIN E [reference compound]
IC50 (Human LDLs [2]): 4 µM
IC50 (Human LDLs [1]): > 100 µM

From patent publication US5457103A, “3',5'-di-tert.-butyl-4'-hydroxy flavones” (Adir et Compagnie, priority 1992, dated 1995)
